Experimental data from patent publication US5310938A, “Substituted arylpyrrole compounds” (American Cyanamid Company, priority 1993, dated 1994).
Where “and” joins values, the source holds several entries; their conditions need not be identical. Identical values can stand only once. Like-named read-outs stand apart in the source and are kept apart here.

Assays:
Housefly Larvae = experiment: Inhibition of pupation of newly emerged housefly larvae; assay type: in vivo; conditions: Musca domestica, 168 h, one week, 27° C., corrected by Abbott's formula
Method: In this test system newly emerged housefly larvae are grown on an undefined medium of fermented whole milk and dried beef blood. Compounds are added to the milk and activity is determined by the failure of larvae to pupate.
The test is run in 1 oz. plastic medicine cups. Paper toweling is cut in pieces approximately 3.5×10 cm. Three of these pieces are folded accordion style and placed in each paper cup. A piece of masking tape is placed on the outside of the cup to facilitate numbering. Cups should be prepared prior to the day the test is to begin.
Newly hatched housefly larvae are obtained on the morning the test is to begin. The eggs are laid the night before and larvae usually begin to hatch by 9-10 AM the following morning.
Twenty-four hours before the initiation of the test, one half gallon of whole milk is divided into 5 1-liter beakers and placed in an incubator at 39° C.
The morning of the test, one 250 ml beaker is labeled for each treatment. The fermented milk is removed from the incubator, stirred and poured into each of the small beakers. The beakers are then returned to the incubator and 1-2 g of dried beef blood added to each beaker to distribute blood which will not dissolve. The beakers are again returned to the incubator.
Doses of compounds are calculated so that 0.1 ml contains the amount of compound to be added to 100 ml of milk. Compounds should be dissolved in acetone. 100 μl of acetone is added to each control beaker.
Each beaker is removed from incubator and placed on a magnetic stirrer. The compound is added and thoroughly mixed. Then 20 ml portions are removed and added to labelled test cups (4 reps/treatment). Cups are placed in stainless steel tray until all are prepared. […] The tray containing the cups are then placed in a plastic bag and maintained at room temperature.
The media that the fly eggs are laid in is spread out in a green or black pan so that larvae can be observed. Working under an illuminated magnifier 20 larvae are transferred into each cup using a fine paint brush. Each cup is then sealed in a Zip-Loc sandwich bag with a few pinholes in it.
Bags containing cups are placed on a flat tray and placed in a 27° C. incubator for one week. The majority of the larvae will have pupated at this point.
Trays are then removed from the incubator and the number of pupae in each bag recorded. The paper toweling is removed and examined closely for any pupae that have remained in the cups. Most of the pupae will be loose in the bag. A note is also made of any dead or live developed larvae. If there are larvae that appear capable of pupating, the bag may be returned to the incubator for a day to see if they will pupate.
The percent development of pupae is then calculated. The final results are expressed as a percent inhibition of pupation and are corrected for control mortality by using Abbott's formula.

Caenorhabditis elegans = experiment: Nematicidal activity against C. elegans (motility rating); assay type: in vivo, C. elegans (Bristol strain); parameters: key: 9: complete kill; 8: no motility; 7: markedly reduced motility in approximately 95% of worms; 6: reduced motility; 5: slightly reduced motility; 0: normal motility, same as controls; conditions: read at 4 and 24 hours post-immersion
Method: Cultures of C. elegans (Bristol strain from J. Lewis) are maintained on E. coli lawns on NG Agar Plates at 20° C. New cultures are established weekly.
Nematodes for testing are washed from 4-5 day old cultures using Fresh Ascaris Ringers Solution (FARS). The worms are further washed with FARS,-containing gentamycin, to reduce bacterial contamination and centrifuged to separate worms from wash solution. This procedure is repeated three times. The washed worms are then added to C. brigassae Maintenance Medium (CbMM), from GIBCOa to which is added gentamycin (600 units/ml) and mycostatin (0.5 mg/ml).
Compounds are dissolved in acetone and made up to volume with equal parts of water. The final test concentration of each compound in the mixture is 150 ppm. The test material is micropipetted (25 ul) into a single well of a 96-well sterile tissue culture plate (COSTAR)^b and the solvent allowed to evaporate. These "treated" plates are used immediately or stored in a refrigerator without apparent adverse effects on the compounds.
A freshly prepared volume ([…]) of C. elegans in CbMM is micropipetted into each treated well and several control wells per plate. Culture plates are incubated at 20° C.
Observations for efficacy are made under a dissecting microscope at 4 and 24 hours post-immersion. Immediately prior to reading the plate, it is gently tapped to stimulate the movement of the worms. Activity is judged based on the drug effects on motility of the adults and larvae. […] Other factors indicating activity are easily noted such as death, rigor mortis, contraction, coiling, paralysis, abnormal twitching, reduced worm population in 48 hours and other deviation from normal behavior.
Day 0 Inoculate E. Coli-NG Agar Dish With 30-40
Day 4 Harvest New C. Elegans Population
Add C. Elegans (25-100 µL) To "Medicated"
Observe for Activity at 4 hours Post-
Day 5 Observe For Activity

Ctenocephalides felis = experiment: Filter paper contact test against the cat flea; assay type: in vivo; conditions: 20.0 μg/cm^2, 24 hour
Method: This test is conducted in the same manner as the mite filter paper test described in Example 2 with the following exceptions:
(1) only one filter paper is used on the bottom of the dish;
(2) Unfed fleas that have emerged from pupae within the last 24 hours are used for the test. Fleas are initially collected in glass vials and then temporarily immobilized by placing the vials in ice. Once the fleas are no longer active, vials are opened and fleas dumped into Petri dishes. The number of fleas per dish will vary but generally contain 8-12 fleas.
(3) Dishes are held for 24 hours until the mortality counts are made;
(4) Edges of the Petri dish are sealed with Scotch tape to prevent escape of the fleas; and
(5) Dishes are not opened when test is read but fleas are observed under dissecting scope in the dishes. Some fleas will move under the filter paper so dish should be inverted to check. Fleas are considered dead if they cannot remain upright and jump.

[1] = test system: Trichostrongylus colubriformis; experiment: Control of helminths (T. colubriformis) in infected gerbils; assay type: in vivo, Trichostrongylus colubriformis (sheep origin) in gerbils
Text: Each test generally consists of 75 infected gerbils, randomly distributed 2 or 3 per cage (the number of animals per cage is consistent within a specific experiment). Generally, there are 8-9 untreated control gerbils (3-4 cages) per test. The remaining cages are assigned a treatment, usually 1 cage per compound or dose.
Compounds administered in diet are fed for 4 days. Animals treated by gavage or injection are generally treated on only 1 day (usually day 7).
In accordance with this test, gerbils are each orally infected by gavage, with about 400 Trichostrongylus colubriformis infective larvae of sheep origin. The infected animals are then permitted to feed and drink ad libitum for six days. On day 7 the infected gerbils are randomly placed in rodent cages 2 or 3 animals per cage. The animals in each cage are weighed and the feed for each cage weighed. If the treatment to be evaluated is medicated feed, said medicated feed is offered on day 7 and continued through day 11 of the trial. If the treatment to be evaluated is a single oral dose or a parenteral treatment, the animals are given the medication by gavage or injection on day 7 and receive unmedicated feed and water through day 11 of the trial. On day 11 the animals and their feed are weighed. Thereafter the animals are euthanized by CO2 inhalation and their small intestines removed, inverted on application sticks and incubated in tap water at 39° C. for 1-5 hours. The sticks and intestines are then discarded and the worms from each treatment counted to determine the % mortality of the worms as compared to untreated controls.

Psoroptes cuniculi = experiment: Filter paper contact test against Psoroptes cuniculi (Rabbit Ear Mite); assay type: in vivo; conditions: Psoroptes ovis
Method: On the day prior to the test initiation the drugs to be evaluated are dissolved in acetone and diluted to the desired concentrations. The concentration is calculated so that 400 μl contains the amount of test compound to be placed on each filter paper. 400 μl of this solution is pipetted onto a top (3.7 cm dia.) and bottom (3.5 cm dia.) filter paper disks which are then placed on a ceramic plate to dry. There is a rough and smooth side to the filter paper. Drug should be applied to the rough side which is placed up while drying. When dry the two disks are placed in a Petri dish with the rough sides facing in, separated by one 3 mm glass bead. Dishes are held at room temperature overnight if done the day before the test.
Scab (containing mites) is collected from the ears of infested rabbits the morning of the test. This material is placed in a large Petri dish under an illuminated magnifier. Mites crawl out of the scab and are easily collected on the point of a dissecting needle or one prong of a pair of fine forceps. The top filter paper in each dish is removed and 12 mites are placed on the bottom disk and the top paper replaced. Before replacing the top of the Petri dish the rim of the dish is smeared with Vaseline to trap any escaping mites.
For evaluation tests there are generally 4 replicates of each dose which are counted at 24 hours. After mites are added to the dishes, the dishes in each replicate are placed in a tray which is then placed in a plastic bag with several wet towels and held at room temperature.
After 24 hours dishes are examined under a dissecting scope. Each dish is opened carefully and the top filter paper removed and saved. A 1/2 cm circle is drawn on the bottom filter paper and the paper gently wet in the area of the circle. All mites from the dish are transferred into the wet circle area and counted. The top cover is replaced on each dish and the dishes set aside for at least 15 minutes. After standing the dishes are examined and the mites remaining on the circle counted. These mites are dead. Percent mortality of the mites is then calculated for each treatment.

Dermacentor variabilis = experiment: Filter paper contact test against larval stages of the Dogtick; assay type: in vivo
Method: The test procedure used herein is the same procedure described in Example 2, for evaluating the arylpyrroles for control of Psoroptes cuniculi the Rabbit Ear Mite, with the following exceptions:
(1) Unfed larval ticks are obtained from egg masses laid by gravid female ticks removed from dogs and each replicate receives ticks from the same egg mass;
(2) Ticks survive longer than mites in the Petri dishes, thus readings are made 48 hours or longer after the test is initiated; and
(3) When reading the test it may be necessary to blow on the ticks to stimulate their movement.

[2] = 4.0 μg/cm^2, 24 hour, read-out: 24 hour % Mortality
[3] = 24 h, read-out: 24 hour % Mortality

SMILES | inhibition at 1 ppm (Housefly Larvae; 1.0 ppm) [%] | inhibition at 10 ppm (Housefly Larvae) [%] | Rating Against C. Elegans 150 ppm (Caenorhabditis elegans) | mortality at 20 µg/cm2, 20 µg/cm2 (Ctenocephalides felis) [%] | % Helminth removal ([1]; 500 PPM in diet, 4 days) | % Helminth removal ([1]; single oral dose 10 mg/kg) [%] | % Helminth removal ([1]; single oral dose 25 mg/kg) [%] | mortality at 4 µg/cm2, 4 µg/cm2 (Psoroptes cuniculi; [2]) [%] | mortality at 1 µg/cm2, 1 µg/cm2 (Dermacentor variabilis; 1.0 μg/cm^2, 48 hour) [%] | mortality at 5 µg/cm2, 5 µg/cm2 (Dermacentor variabilis; 5.0 μg/cm^2, 48 hour) [%] | mortality at 10 µg/cm2, 10 µg/cm2 (Dermacentor variabilis; 10.0 μg/cm^2, 48 hour) [%] | mortality at 0.01 µg/cm2, 0.01 µg/cm2 (Psoroptes cuniculi; [3]) [%] | mortality at 0.1 µg/cm2, 0.1 µg/cm2 (Psoroptes cuniculi; 0.1 μg/cm^2, 24 hour) [%] | mortality at 1 µg/cm2, 1 µg/cm2 (Psoroptes cuniculi; 1.0 μg/cm^2, 24 hour) [%] | mortality at 16 µg/cm2, 16 µg/cm2 (Psoroptes cuniculi; 16.0 μg/cm^2, 24 hour) [%] | mortality at 4 µg/cm2, 4 µg/cm2 (Psoroptes cuniculi; [3]) [%]
N#Cc1[nH]c(-c2ccc(Cl)cc2)c(C#N)c1Br [3-Bromo-5-(p-chlorophenyl)pyrrole-2,4-dicarbonitrile] | 0 | 100 | 9 | 47 | 54% and 36% and 50% | 25 | 18 | 48 |  |  |  |  |  |  |  | 
CCOCn1c(Cl)c(Cl)c(C#N)c1-c1ccc(C(F)(F)F)cc1 [4,5-Dichloro-1-(ethoxymethyl)-2-(α,α,α-trifluoro-P-tolyl)pyrrole-3-carbonitrile] |  | 64 | 9 | 71 |  |  |  | 92 | 52 | 100 | 97 | 48 | 20 | 100 | 100 | 
O=[N+]([O-])c1cc(C(F)(F)F)[nH]c1-c1ccc(Cl)c(Cl)c1 [2-(3,4-Dichlorophenyl)-3-nitro-5-(trifluoromethyl)-pyrrole] |  | 100 | 9 | 73 |  |  |  |  |  |  |  |  |  |  |  | 100
